We go through twelve compounds from PubChem BioAssay (NCI).

Test systems include HCT-116 colon; M14 melanoma; SW-620 colon; HT29 colon; SF-539 CNS; HOP-62 NSCLC; ACHN renal; 786-0 renal; IGROV1 ovarian; RXF 393 renal.
What all share (assay): growth of human tumour cells (NCI), 48 h

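Test compounds were applied to cells in 96-well plates for 48 hours at 5 doses. The concentration for 50% growth inhibition is given as GI50. The concentration for full growth arrest is given as TGI.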 A value given as a limit tells only on which side of the number the result lay.

In the case of `Nc1nc(OCc2ccccc2)nc2[nH]ncc12`, the GI50 is 19.7 µM with HCT-116 colon; 36.6 µM in the test with M14 melanoma; 18.9 µM in the test with SW-620 colon; 28.6 µM in the test on HT29 colon; 23.3 µM with SF-539 CNS; 19.3 µM in the test on HOP-62 NSCLC. Moreover, the GI50 with ACHN renal was 25.5 µM; in the test on 786-0 renal, 18.7 µM; with IGROV1 ovarian, 32.5 µM. The TGI in the test with HCT-116 colon is 39 µM; with M14 melanoma, more than 100 µM; in the test with SW-620 colon, 39.3 µM; in the test on HT29 colon, 77.6 µM; with SF-539 CNS, 47.7 µM; with HOP-62 NSCLC it was 37.8 µM. The TGI is more than 100 µM in the test on ACHN renal, 44.4 µM with 786-0 renal and more than 100 µM in the test on IGROV1 ovarian.
As to `CSc1nc(-c2ccccc2)c2c(n1)-c1ccccc1CC2`, the TGI with RXF 393 renal, in the test on HCT-116 colon, in the test with M14 melanoma, in the test on SW-620 colon, in the test on HT29 colon and in the test with HOP-62 NSCLC was more than 100 µM each time. The TGI in the test on 786-0 renal and with IGROV1 ovarian was more than 100 µM in each case.
Take `N/N=C(\Cc1ccccc1)NN=C(N)N`: the TGI with HCT-116 colon, in the test on M14 melanoma, in the test on SW-620 colon, in the test on HT29 colon, in the test on SF-539 CNS and in the test with ACHN renal was more than 100 µM in each case. In addition, the TGI in the test with 786-0 renal and with IGROV1 ovarian was more than 100 µM each time.
As to `CCOc1ccc(NC(=O)CC2SC(N)=NC2=O)cc1` (centres undefined), the TGI with RXF 393 renal, with HCT-116 colon, with M14 melanoma, with SW-620 colon, in the test on HT29 colon and with HOP-62 NSCLC was more than 100 µM throughout. Besides, the TGI in the test with ACHN renal, with 786-0 renal and in the test on IGROV1 ovarian was more than 100 µM throughout.
As to `COC(=O)[C@]1(C)CCC[C@@]2(C)C1CCC1=C[C@@]3(C(C)C)CC[C@]12OO3` (some centres undefined), the TGI is 73 µM in the test on HCT-116 colon; 68.3 µM in the test with M14 melanoma; more than 100 µM in the test on SW-620 colon; 29.5 µM in the test with HT29 colon; 47.5 µM in the test with SF-539 CNS; more than 100 µM in the test on HOP-62 NSCLC. Further, the TGI with ACHN renal was more than 100 µM; in the test with 786-0 renal it was 40.9 µM; in the test with IGROV1 ovarian it was more than 100 µM.
In the case of `Cc1cc(N2CCCC2)nc(N(CCCNc2ccnc3cc(Cl)ccc23)Cc2ccc3c(c2)OCO3)n1`, the GI50 is 0.511 µM in the test on HCT-116 colon; 1.37 µM in the test on M14 melanoma; 1.21 µM in the test on SW-620 colon; 0.541 µM in the test on HT29 colon; 1.23 µM in the test with SF-539 CNS; 1.83 µM in the test with HOP-62 NSCLC. The GI50 was 1.67 µM in the test on ACHN renal, 1.11 µM in the test with 786-0 renal and 1.38 µM with IGROV1 ovarian. For the same compound, the TGI in the test with HCT-116 colon is 3.3 µM; in the test on M14 melanoma, 3.04 µM; with SW-620 colon it was 2.87 µM; in the test with HT29 colon, 2.83 µM; in the test with SF-539 CNS it was 2.6 µM; in the test on HOP-62 NSCLC it was 10.2 µM. In addition, the TGI was 5.93 µM with ACHN renal, 2.8 µM in the test on 786-0 renal and 4.33 µM in the test with IGROV1 ovarian.
As to `N#Cc1ccccc1NC(=O)c1ccccc1`, the TGI in the test on RXF 393 renal, in the test on HCT-116 colon, in the test on SW-620 colon, in the test with HT29 colon, in the test on SF-539 CNS and with HOP-62 NSCLC was more than 100 µM in each case. In addition, the TGI in the test with ACHN renal, with 786-0 renal and with IGROV1 ovarian was more than 100 µM each time.
Turning to `FC(F)(F)C12C34C=CC5(CCC6(C=CC1(CC3)O6)C52C(F)(F)F)O4` (centres undefined), the TGI with RXF 393 renal, with HCT-116 colon, with SW-620 colon, in the test with HT29 colon, in the test on SF-539 CNS and in the test on HOP-62 NSCLC was more than 100 µM each time. Besides, the TGI with ACHN renal, with 786-0 renal and with IGROV1 ovarian was more than 100 µM in each case.
Turning to `Cc1cn2c(/C=N/N/C(N)=N\N)c(-c3ccc(Cl)c([N+](=O)[O-])c3)nc2s1`, the GI50 with SF-539 CNS is 0.993 µM; in the test on HOP-62 NSCLC it was 4.98 µM; in the test on ACHN renal it was 0.928 µM; in the test with 786-0 renal it was 0.859 µM; in the test on IGROV1 ovarian it was 3.55 µM. For the same compound, the TGI came to 1.83 µM in the test on SF-539 CNS; 15.9 µM in the test on HOP-62 NSCLC; 1.63 µM in the test on ACHN renal; 1.73 µM with 786-0 renal; 37.8 µM in the test on IGROV1 ovarian.
Turning to `C/C=C(/CCCCNCCCC)[Si](C)(C)C`, the TGI with RXF 393 renal worked out at 21 µM; in the test with HCT-116 colon it was 26.6 µM; in the test with M14 melanoma it was 27.7 µM; in the test on SW-620 colon it was 34.1 µM; in the test on HT29 colon it was 14.7 µM; in the test with SF-539 CNS, 28.4 µM. Further, the TGI with ACHN renal turned out to be 26.9 µM; with 786-0 renal, 25.5 µM; in the test with IGROV1 ovarian, 37 µM.
In the case of `CCOC(=O)c1cnn(-c2ccnc3c(C(F)(F)F)cccc23)c1N`, the GI50 in the test on RXF 393 renal, with HCT-116 colon, in the test on SW-620 colon, in the test on HT29 colon, in the test on SF-539 CNS and in the test on HOP-62 NSCLC was more than 100 µM throughout. For the same compound, the GI50 in the test with ACHN renal, in the test with 786-0 renal and in the test with IGROV1 ovarian was more than 100 µM throughout. The TGI in the test on RXF 393 renal, with HCT-116 colon, with SW-620 colon, in the test on HT29 colon, in the test with SF-539 CNS and in the test on HOP-62 NSCLC was more than 100 µM in each case. For the same compound, the TGI in the test with ACHN renal, in the test on 786-0 renal and in the test with IGROV1 ovarian was more than 100 µM throughout.
For the compound `S=c1ssc(Sc2ccccn2)c1Cl`, the GI50 is 16.9 µM with RXF 393 renal; 14 µM with M14 melanoma; 3.43 µM with HT29 colon; 16 µM in the test on SF-539 CNS; 17.5 µM in the test with HOP-62 NSCLC; 4.62 µM with ACHN renal. The GI50 in the test with 786-0 renal is 4.09 µM. In addition, the TGI is 32.6 µM in the test with RXF 393 renal; 27 µM in the test on M14 melanoma; more than 100 µM in the test with HT29 colon; 32.1 µM in the test on SF-539 CNS; 31.3 µM in the test on HOP-62 NSCLC; 16.7 µM in the test with ACHN renal. The TGI in the test on 786-0 renal was found to be 14.4 µM.
